From patent publication US20240207292A1, “BORONIC ACID COMPOUNDS, COMPOSITIONS AND METHODS” (Trustees of Tufts College, priority 2021, published 2024) come the findings set out here.

Read-outs that look alike come from different tables or passages of the source. Square brackets hold non-standard residues; d marks the D form. Peptide text beside a SMILES is read from it. * marks the point of attachment. X3 = O=C1CN2CCN3CC(=O)O[C]4(C3)CN(CC(=O)*)CCN3CC(=O)O[C](C2)(C3)[Lu]4[O]1; X4 = O=C1CN2CCN3CC(=O)O[C]4(C3)CN(CC(=O)*)CCN3CC(=O)O[C](C2)(C3)[Ga]4[O]1; boroPro = OB(O)[C@@H]1CCCN1* Some results are limits rather than exact numbers.

Data set [1] addresses recombinant human FAP (Homo sapiens (Human), UniProt Q12884). Nature of the data set: In vitro enzyme IC50 assay, FAP (Example 16). The following applies: 10 min preincubation at 25° C.; Z-Gly-Pro-AMC. Type of data set: biochemical. How it is done: Biological Materials: For the in vitro IC50 determination assays, recombinant human DPPIV, DPP9, FAP, and PREP were purchased from R&D Systems, and DPP8 was from Biomol International. Buffer systems used were A (25 mM Tris, pH 8.0), B (50 mM Tris, pH 7.5), C (50 mM Tris, 140 mM NaCl, pH 7.5), D (25 mM Tris, 250 mM NaCl, pH 7.5), and E (20 mM Tris, 20 mM KCl, pH 7.4). […] Substrate Specificity Assay. Peptide libraries (0.21 mM) were incubated for 24 h with 1 nM FAP in buffer E at 37° C. The reaction was quenched by the addition of 1.2 N HCl. The samples were analyzed by reverse-phase HPLC-MS on a Thermo Finnigan LCQ Duo, quantifying the peaks in the resulting base peak chromatograms. Relative cleavage values were determined by comparing the postquench abundance of intact peptides to those in the initial library.
In Vitro Enzyme IC50 Assays. Enzymatic activity of DPPIV, DPP8, DPP9, FAP, and PREP was measured at 25° C. on a Molecular Devices M2e multidetection microtiter plate reader, monitoring the fluorescence at an excitation wavelength of 380 nm and an emission wavelength of 460 nm. The substrate was either H-Gly-Pro-AMC for the DPPIV, DPP8, and DPP9 assays or Z-Gly-Pro-AMC for the FAP and PREP assays. […] The final enzyme concentrations were 0.1, 0.8, 0.4, 1.2, and 0.6 nM for DPPIV, DPP8, DPP9, FAP, and PREP, respectively. […] Those prepared in pH 2.0 solution were preincubated at 25° C. for 4 h prior to dilution. Immediately prior to the commencement of the experiment, the 100 mM stocks were further diluted to 10^-3 M in the appropriate assay buffer, from which 1:10 serial dilutions were prepared. All inhibitors were tested in triplicate.

Data set [2] can be described thus: Degradation in aqueous solution of pH about 3 during HPLC purification and lyophilization. The following applies: during HPLC purification and subsequent lyophilization.
The target in data set [3] is recombinant human dipeptidyl peptidase IV (DPPIV) (Homo sapiens (Human), UniProt P27487). Nature of the data set: In vitro assay dipeptidyl peptidase IV IC50 (Example 21). Type of data set: biochemical. As to the method: (§1) The purpose of this assay is to determine the IC50 of various inhibitors against recombinant human dipeptidyl peptidase IV (DPPIV), fibroblast activation protein (FAP) or prolyl oligopeptidase (PREP).
(§2) The assays are conducted in the following steps: • 1 Dissolve the compound in DMSO to a final concentration of 100 mM. From this, prepare a 1 mM stock at pH 7.5 in 50 mM Tris, 140 mM NaCl Buffer (FAP)/pH 7.5 in 25 mM Tris, 250 mM NaCl Buffer/[…]. • 2. Serial dilute (1:10) the 1 mM compound stocks prepared previously into the appropriate assay buffer (FAP: 50 mM Tris, 140 mM NaCl, pH 7.5/PREP: 25 mM Tris, 0.25 M NaCl, pH 7.5/DPPIV: 25 mM Tris, pH 8.0) to one row of a 96-well plate. • 3. […] Dilute the enzymes into their appropriate assay buffers. The final enzyme concentrations should be 0.1, 1.2, and 0.6 nM for DPPIV, FAP and PREP respectively. Add 180 μL to each well needed in columns 2-10. Column 1(A,B,C) should be prepared with 200 μl of appropriate assay buffer as control. Column 1(D,E,F,G,H) should be prepared with 20 μl of appropriate assay buffer and 180 ul enzyme as no inhibitor control. • 5. Add 20 μL of the compound of interest from the dilution plate prepared in step 2 to columns 2-10 of the assay plate where appropriate. Each sample should be tested in triplicate. Allow this to incubate for 10 minutes at room temperature, shaking the plate for the first two minutes. • 6. Add 10 μL of 20× substrate prepared in step 3 to each well and allow this to incubate for 15 minutes at room temperature, shaking the plate for the first two minutes. • 7. Read the fluorescence at λex: 380, λem: 460. (DPcore=[dAla|dSer|Gly]-[boroPro|Pro-nitrile], XXaa=alpha-amino acid)

Data set [4] deals with recombinant human prolyl oligopeptidase (PREP) (Homo sapiens (Human), UniProt P48147). Briefly: In vitro assay prolyl oligopeptidase IC50 (Example 21). Type of data set: biochemical. How it is done:
as §1, §2

Data set [5] has as its target recombinant human fibroblast activation protein (FAP) (Homo sapiens (Human), UniProt Q12884). Briefly: In vitro assay fibroblast activation protein IC50 (Example 21). The format is biochemical. As to the method: as §1, §2

Sequence of recombinant human dipeptidyl peptidase IV (DPPIV) (P27487 whole entry): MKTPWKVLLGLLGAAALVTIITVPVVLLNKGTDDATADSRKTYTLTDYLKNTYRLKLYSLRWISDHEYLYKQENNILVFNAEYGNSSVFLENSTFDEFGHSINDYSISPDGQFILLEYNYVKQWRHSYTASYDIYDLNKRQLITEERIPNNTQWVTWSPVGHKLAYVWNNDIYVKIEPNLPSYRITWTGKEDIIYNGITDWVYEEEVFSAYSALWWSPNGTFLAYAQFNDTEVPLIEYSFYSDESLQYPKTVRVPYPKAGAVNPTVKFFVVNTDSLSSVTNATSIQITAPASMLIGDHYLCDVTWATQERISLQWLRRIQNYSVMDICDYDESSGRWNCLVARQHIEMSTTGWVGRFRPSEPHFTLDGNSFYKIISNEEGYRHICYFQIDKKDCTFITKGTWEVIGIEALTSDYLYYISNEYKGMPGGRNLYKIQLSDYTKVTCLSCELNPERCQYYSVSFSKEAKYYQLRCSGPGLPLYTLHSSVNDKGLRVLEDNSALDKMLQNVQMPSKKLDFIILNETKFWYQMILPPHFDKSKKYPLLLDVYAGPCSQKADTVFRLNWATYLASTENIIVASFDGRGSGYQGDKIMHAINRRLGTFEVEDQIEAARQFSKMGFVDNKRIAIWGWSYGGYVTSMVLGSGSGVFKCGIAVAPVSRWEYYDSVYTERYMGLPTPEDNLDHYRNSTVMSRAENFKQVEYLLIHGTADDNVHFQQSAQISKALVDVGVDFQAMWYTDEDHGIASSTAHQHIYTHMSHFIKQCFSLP
Sequence of recombinant human prolyl oligopeptidase (PREP) (P48147 whole entry): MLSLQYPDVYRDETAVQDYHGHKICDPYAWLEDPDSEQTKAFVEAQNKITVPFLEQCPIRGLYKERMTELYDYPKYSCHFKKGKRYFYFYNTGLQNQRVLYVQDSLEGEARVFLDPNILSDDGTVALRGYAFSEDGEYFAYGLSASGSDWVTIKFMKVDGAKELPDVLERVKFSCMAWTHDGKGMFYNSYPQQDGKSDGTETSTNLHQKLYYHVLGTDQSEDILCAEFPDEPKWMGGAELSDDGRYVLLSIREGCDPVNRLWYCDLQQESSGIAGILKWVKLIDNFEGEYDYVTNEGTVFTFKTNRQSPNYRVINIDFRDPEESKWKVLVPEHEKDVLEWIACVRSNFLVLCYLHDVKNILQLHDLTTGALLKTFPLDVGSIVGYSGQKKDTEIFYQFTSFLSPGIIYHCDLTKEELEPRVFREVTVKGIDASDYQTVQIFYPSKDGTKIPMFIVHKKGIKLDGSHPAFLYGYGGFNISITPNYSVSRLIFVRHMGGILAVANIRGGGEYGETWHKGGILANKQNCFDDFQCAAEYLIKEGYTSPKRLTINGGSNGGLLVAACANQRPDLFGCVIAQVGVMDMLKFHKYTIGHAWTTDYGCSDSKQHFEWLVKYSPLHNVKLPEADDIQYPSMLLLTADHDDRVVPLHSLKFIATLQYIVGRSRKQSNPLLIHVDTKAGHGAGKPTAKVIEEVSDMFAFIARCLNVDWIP
Sequence of recombinant human fibroblast activation protein (FAP) (Q12884 whole entry): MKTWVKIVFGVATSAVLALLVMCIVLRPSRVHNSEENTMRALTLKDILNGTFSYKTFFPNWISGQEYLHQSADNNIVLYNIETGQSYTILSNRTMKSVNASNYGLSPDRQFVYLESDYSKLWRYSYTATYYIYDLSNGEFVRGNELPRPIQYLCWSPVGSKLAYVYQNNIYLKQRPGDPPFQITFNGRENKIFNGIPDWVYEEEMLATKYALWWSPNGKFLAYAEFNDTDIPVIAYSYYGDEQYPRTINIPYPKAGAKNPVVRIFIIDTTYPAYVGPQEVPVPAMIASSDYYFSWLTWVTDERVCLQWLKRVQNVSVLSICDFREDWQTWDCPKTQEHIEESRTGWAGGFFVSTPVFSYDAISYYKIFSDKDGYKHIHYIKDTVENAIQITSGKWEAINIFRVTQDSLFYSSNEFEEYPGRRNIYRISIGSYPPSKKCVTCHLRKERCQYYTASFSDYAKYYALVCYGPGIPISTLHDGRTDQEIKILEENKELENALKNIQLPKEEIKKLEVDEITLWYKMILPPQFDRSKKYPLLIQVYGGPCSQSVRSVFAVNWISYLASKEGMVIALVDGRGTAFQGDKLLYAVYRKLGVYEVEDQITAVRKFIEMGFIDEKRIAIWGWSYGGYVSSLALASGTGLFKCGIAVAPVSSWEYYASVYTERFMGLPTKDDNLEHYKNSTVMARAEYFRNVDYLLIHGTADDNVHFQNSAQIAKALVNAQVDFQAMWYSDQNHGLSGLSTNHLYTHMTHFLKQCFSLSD
Sequence of recombinant human FAP (Q12884 whole entry): as above

For `C[C@@H](NC(=O)c1ccc(NNC(=O)CCCNC(=O)CN2CCN(CC(=O)O)CCN(CC(=O)O)CCN(CC(=O)O)CC2)cc1)C(=O)N1CCC[C@H]1B(O)O` [6489S, DOTA-GABA-HyBz-D-Ala-boroPro], in data set [1], the half-maximal inhibitory concentration (IC50) (commonly the concentration needed to halve the response being measured) came to 0.8 nM.
With `C[C@@H](NC(=O)c1ccc(CNC(=O)CN2CCN3CCN4CCN(CC2)CC(=O)[O][Ga]([O]C(=O)C3)[O]C(=O)C4)cc1)C(=O)N1CCC[C@H]1B(O)O` [6555GA], the “degradation in aqueous solution” value in data set [2] is “did not observe any sign of degradation”. Besides, the concentration for half-maximal inhibition (IC50) is over 100000 nM in data set [3], 3600 nM in data set [4] and 55 nM in data set [5].
In the case of `C[C@@H](NC(=O)c1ccc(NNC(=O)CCNC(=O)CN2CCN3CCN(CC(=O)O)CCN(CC2)CC(=O)[O][Cu][O]C(=O)C3)cc1)C(=O)N1CCC[C@H]1B(O)O` [compound 6488, DOTA[Cu]-betaAla-HyBz-D-Ala-boroPro], the IC50 in data set [1] and in data set [5] was 34.3 nM each time.
On to `C[C@@H](NC(=O)c1ccc(NC(=O)CN2CCN3CCN(CC(=O)O)CCN(CC2)CC(=O)[O][Cu][O]C(=O)C3)cc1)C(=O)N1CCC[C@H]1B(O)O` [6572CU, DOTA[Cu(II)]-PABA-D-Ala-boroPro], for which, in data set [1], the concentration for half-maximal inhibition (IC50) is 12.6 nM.
For the molecule `C[C@@H](NC(=O)c1ccc(NNC(=O)CCNC(=O)CN2CCN(CC(=O)O)CCN(CC(=O)O)CCN(CC(=O)O)CC2)cc1)C(=O)N1CCC[C@H]1B(O)O` [6488S, DOTA-betaAla-HyBz-D-Ala-boroPro], the IC50 in data set [1] and in data set [5] was 8.8 nM throughout.
As for `C[C@@H](NC(=O)c1ccc(CNC(=O)CN2CCN(CC(=O)O)CCN(CC(=O)O)CCN(CC(=O)O)CC2)nc1)C(=O)N1CCC[C@H]1B(O)O` [compound 6556, DOTA-aminomethyl-Nic-D-Ala-boroPro], the half-maximal inhibitory concentration (IC50) in data set [1] and in data set [5] was 2.4 nM throughout.
Take `CC(C)[C@H](NC(=O)CNC(=O)CN1CCN(CC(=O)O)CCN(CC(=O)O)CCN(CC(=O)O)CC1)C(=O)N[C@H](C)C(=O)N1CCC[C@H]1B(O)O` [compound 6521, DOTA-Gly-Val-D-Ala-boroPro]: the concentration for half-maximal inhibition (IC50) in data set [1] worked out at 6.9 nM; in data set [5] (Z-Gly-Pro-AMC, 1.2 nM enzyme) it was 6.9 nM.
For `C[C@@H](NC(=O)c1ccc(NNC(=O)CCCCCNC(=O)CN2CCN(CC(=O)O)CCN(CC(=O)O)CCN(CC(=O)O)CC2)cc1)C(=O)N1CCC[C@H]1B(O)O` [6486S, DOTA-EACA-HyBz-D-Ala-boroPro], in data set [1], the IC50 is 1.7 nM.
As for `C[C@@H](NC(=O)c1ccc(NC(=O)CN2CCN(CC(=O)O)CCN(CC(=O)O)CCN(CC(=O)O)CC2)cc1)C(=O)N1CCC[C@H]1B(O)O` [compound 6572, DOTA-PABA-D-Ala-boroPro], the IC50 in data set [1] and in data set [5] was 1.6 nM in each case.
For the molecule “DOTA[(Cu(II)]-Ser-D-Ala-boroPro [6509CU]”, the IC50 in data set [1] was 128 nM; in data set [5] (Z-Gly-Pro-AMC, 1.2 nM enzyme), 128 nM.
`CC(C)[C@H](NC(=O)CNC(=O)CNC(=O)CN1CCN2CC(=O)O[C]3(CN4CCN5CC(=O)O[C](C1)(C5)[Ga]3[O]C(=O)C4)C2)C(=O)N[C@H](C)C(=O)N1CCC[C@H]1B(O)O` (stereo partly drawn) [6522GA-02] (X4-GGV[dA]-boroPro): the half-maximal inhibitory concentration (IC50) in data set [3] (Gly-Pro-AMC, 0.1 nM enzyme) is over 100000 nM; in data set [4] (Z-Gly-Pro-AMC, 0.6 nM enzyme) it was 19000 nM; in data set [5] (Z-Gly-Pro-AMC, 1.2 nM enzyme), 575 nM.
For the molecule `C[C@@H](NC(=O)c1ccc(NN)nc1)C(=O)N1CCC[C@H]1B(O)O` [compound 3860], the IC50 in data set [3] was over 100000 nM; in data set [4] it was 9800 nM; in data set [5], 170 nM.
For `C[C@@H](NC(=O)c1ccc(NNC(=O)CNC(=O)CN2CCN(CC(=O)O)CCN(CC(=O)O)CCN(CC(=O)O)CC2)cc1)C(=O)N1CCC[C@H]1B(O)O` [6487S, DOTA-Gly-HyBz-D-Ala-boroPro], the concentration for half-maximal inhibition (IC50) in data set [1] is 2.1 nM.
Take `CC(C)[C@H](NC(=O)CNC(=O)CNC(=O)CN1CCN2CC(=O)O[C]3(CN4CCN5CC(=O)O[C](C1)(C5)[Lu]3[O]C(=O)C4)C2)C(=O)N[C@H](C)C(=O)N1CCC[C@H]1B(O)O` (stereo partly drawn) [6522LU] (X3-GGV[dA]-boroPro): the IC50 in data set [3] (Gly-Pro-AMC, 0.1 nM enzyme) was over 100000 nM; in data set [4] (Z-Gly-Pro-AMC, 0.6 nM enzyme) it was 19000 nM; in data set [5] (Z-Gly-Pro-AMC, 1.2 nM enzyme) it was 26 nM.
In the case of `C[C@@H](NC(=O)c1ccc(NNC(=O)CN2CCN3CCN(CC(=O)O)CCN(CC2)CC(=O)[O][Cu][O]C(=O)C3)cc1)C(=O)N1CCC[C@H]1B(O)O` [compound 6481, DOTA[Cu(II)]-HyBz-D-Ala-boroPro], the IC50 in data set [1] worked out at 10.3 nM.
In the case of `C[C@@H](NC(=O)c1ccc(NNC(=O)CN2CCN(CC(=O)O)CCN(CC(=O)O)CCN(CC(=O)O)CC2)cc1)C(=O)N1CCC[C@H]1B(O)O` [4536B, DOTA-HyBz-D-Ala-boroPro], in data set [1], the concentration for half-maximal inhibition (IC50) is 2.7 nM.
Take `N[C@@H](CCCCNC(=O)CN1CCN(CC(=O)O)CCN(CC(=O)O)CCN(CC(=O)O)CC1)C(=O)N1CCC[C@H]1B(O)O` [compound 6549, Lys(DOTA)-boroPro]: the half-maximal inhibitory concentration (IC50) in data set [1] worked out at 3.2 nM; in data set [5], 2.9 nM.
